# From US20130302445A1, “APPARATUS AND METHOD FOR TREATING CEREBRAL ISCHEMIA USING NON-INHALED CARBON DIOXIDE” (priority 2012, published 2013)
# Legend:
# [1] = system: cerebral blood flow in rats; assay: CO2 delivered into the lungs (systemic challenge); cerebral blood flow and arterial gases; format: in vivo; settings: rat, delivery into lungs
# Description: (§1) Referring now to FIG. 3, it can be seen that the increase in cbf is attributable to focal intranasal or intra-oral effect rather than to systemic absorption of CO2. […] At this very high concentration, sufficient CO2 must be absorbed focally, intracranially, into the cerebral circulation to appear in measurable amounts in the systemic circulation. It cannot be concluded, therefore, that the increase in cbf is caused by a purely local action of CO2 rather than being secondary to systemic absorption. […] The effect on cbf during intranasal or intra oral delivery of CO2 with concomitant air inhalation into the lungs is therefore a focal effect on intranasal and intracranial vasculature rather than secondary to systemic absorption.
# awake humans = assay: Tolerability of intranasal CO2 delivery in awake humans; format: in vivo, human
# Description: While CO2 may be given to intubated, comatose individuals, the tolerability of intranasal gas delivery in awake humans has not previously been investigated. We have systematically tested the tolerability and effect of CO2 during intranasal delivery. CO2 elicits intense burning and stinging sensations which are intolerable above 16%. […] So individuals who are awake, such as stroke patients, these lower concentrations would be recommended. The current invention delivers CO2, or a combination of gases into the nasal or oral cavity but prevents its inhalation for the purposes of improving outcome from cerebral ischemia. […] In the embodiment with the anterior occlusion or “clip,” the CO2 could escape via a valve or exit tube or be suctioned out into a vacuumed container.
# intubated patients = settings: hypercarbia from reduced ventilation rate; cited from earlier work
# [2] = system: cerebral blood flow in rats; assay: Intranasal or intra-oral delivery of non-inhaled CO2 with air ventilation through a tracheostomy; cerebral blood flow and arterial gases; format: in vivo; settings: rat
# Description: When CO2 s inhaled through the nose or mouth into the pulmonary circulation, it passes into the systemic blood stream through the alveoli. Once it reaches the brain, it diffuses out into the csf to exert its effect. As more CO2 is inhaled into the lungs and absorbed into the systemic circulation, arterial CO2 concentration (PaCO2) rises, hydrogen ions are produced and arterial pH falls, creating an acidosis. Acidosis leads to narcosis, and ultimately coma and death. Less severe signs of CO2 inhalation in non-intubated patients include headaches, sweating and hyperventilation. […] Inhalation is prevented by ventilating the animal through a tracheostomy with air while delivering the experimental gas intranasally (or intra orally).
# The increase is the same with 100% and with 50% gas concentration. […] Decline following discontinuation is somewhat slower than rise during delivery.
# as §1
# [3] = 50% CO2 intranasal, air into lungs
structure (smiles),measurement,setting,value
"O=C=O [CO2, carbon dioxide]",arterial CO2 concentration when CO2 is delivered into the lungs,[1],rapidly increases
same,arterial pH when CO2 is delivered into the lungs,[1],falls
same,cbf when CO2 is delivered into the lungs,[1],increases sharply
same,CO2 concentration above which burning and stinging sensations are intolerable,awake humans,above 16%
same,tolerability of sensations at 16% CO2 or below,"awake humans; 16% or below, sensations abate over a few minutes",quite tolerable
same,increase in cbf per mm Hg increase in arterial CO2 over 45 mm,intubated patients,4%
same,"arterial pH, intranasal CO2 concentration 50%",[2]; [3],without any detectable increase in systemic PaCO2 or fall of pH
same,"cbf, intranasal CO2 concentration 50%",[2]; [3],doubles
same,"systemic PaCO2, intranasal CO2 concentration 50%",[2]; [3],without any detectable increase
same,"cbf, 100% CO2 delivered intranasally",[2]; 100% CO2 intranasal,also increases
same,"systemic CO2, 100% CO2 delivered intranasally, compared with lung delivery",[2]; 100% CO2 intranasal,far less increase
same,onset of cbf increase after start of delivery,"[2]; intranasal or intra-oral, non-inhaled",within seconds
same,cbf during intranasal or intra-oral delivery of CO2,"[2]; non-inhaled, increase the same with 100% and 50% gas concentration",more than doubled
